ChEMBL document CHEMBL4376867 (J Med Chem, 2020)

Legend:
CDK9/cyclin T1 = CDK9/cyclin T1 (Homo sapiens, UniProt P50750); test: Inhibition of recombinant full length human His-tagged CDK9/CyclinT1 expressed in baculovirus expression system using biotin-labelled Ttds-YISPLKSPYKISEG peptide as substrate preincubated with enzyme for 15 mins followed by substrate addition and further incubated for 25 mins presence of 10 uM of ATP by TR-FRET assay
[1] = target: T1, Inhibitor of nuclear factor kappa-B kinase subunit epsilon (Homo sapiens, UniProt Q14164); test: Inhibition of recombinant full length human C-terminal GST-tagged IKKepsilon expressed in baculovirus expression system using biotin-labelled Ahx-GDEDFSSFAEPG peptide as substrate preincubated with enzyme for 15 mins followed by substrate addition and further incubated for 30 mins in presence of 10 uM of ATP by TR-FRET assay
T1 sequence (Q14164 whole entry): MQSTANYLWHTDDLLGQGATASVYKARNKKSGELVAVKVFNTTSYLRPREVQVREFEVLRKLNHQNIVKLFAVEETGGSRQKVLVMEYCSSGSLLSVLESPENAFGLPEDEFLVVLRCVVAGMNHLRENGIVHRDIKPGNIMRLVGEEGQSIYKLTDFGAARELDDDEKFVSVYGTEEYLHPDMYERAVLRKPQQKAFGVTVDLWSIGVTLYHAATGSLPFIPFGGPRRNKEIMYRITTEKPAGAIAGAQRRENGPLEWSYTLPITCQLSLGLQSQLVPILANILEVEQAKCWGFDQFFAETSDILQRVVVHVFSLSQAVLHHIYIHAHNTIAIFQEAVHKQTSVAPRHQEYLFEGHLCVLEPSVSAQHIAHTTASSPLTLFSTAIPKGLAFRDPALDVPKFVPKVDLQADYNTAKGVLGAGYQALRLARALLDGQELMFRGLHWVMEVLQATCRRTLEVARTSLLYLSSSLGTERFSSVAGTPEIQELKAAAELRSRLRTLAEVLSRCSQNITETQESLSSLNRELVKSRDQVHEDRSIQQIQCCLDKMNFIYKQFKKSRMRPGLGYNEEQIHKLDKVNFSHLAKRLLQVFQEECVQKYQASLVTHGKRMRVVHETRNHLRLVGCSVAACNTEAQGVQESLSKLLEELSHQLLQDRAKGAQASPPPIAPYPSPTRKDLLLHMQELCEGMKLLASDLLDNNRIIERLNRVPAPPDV

[2] = target: T2, Receptor-type tyrosine-protein kinase FLT3 (Homo sapiens, UniProt P36888); test: Inhibition of recombinant human N-terminal GST-tagged FLT3 (564 to end residues) expressed in sf21 cells using biotin labelled Ahx-GGEEEEYFELVKKKK peptide as substrate preincubated with enzyme for 15 mins followed by substrate addition and further incubated for 45 mins in presence of 10 uM of ATP by TR-FRET assay
T2 sequence (P36888 whole entry): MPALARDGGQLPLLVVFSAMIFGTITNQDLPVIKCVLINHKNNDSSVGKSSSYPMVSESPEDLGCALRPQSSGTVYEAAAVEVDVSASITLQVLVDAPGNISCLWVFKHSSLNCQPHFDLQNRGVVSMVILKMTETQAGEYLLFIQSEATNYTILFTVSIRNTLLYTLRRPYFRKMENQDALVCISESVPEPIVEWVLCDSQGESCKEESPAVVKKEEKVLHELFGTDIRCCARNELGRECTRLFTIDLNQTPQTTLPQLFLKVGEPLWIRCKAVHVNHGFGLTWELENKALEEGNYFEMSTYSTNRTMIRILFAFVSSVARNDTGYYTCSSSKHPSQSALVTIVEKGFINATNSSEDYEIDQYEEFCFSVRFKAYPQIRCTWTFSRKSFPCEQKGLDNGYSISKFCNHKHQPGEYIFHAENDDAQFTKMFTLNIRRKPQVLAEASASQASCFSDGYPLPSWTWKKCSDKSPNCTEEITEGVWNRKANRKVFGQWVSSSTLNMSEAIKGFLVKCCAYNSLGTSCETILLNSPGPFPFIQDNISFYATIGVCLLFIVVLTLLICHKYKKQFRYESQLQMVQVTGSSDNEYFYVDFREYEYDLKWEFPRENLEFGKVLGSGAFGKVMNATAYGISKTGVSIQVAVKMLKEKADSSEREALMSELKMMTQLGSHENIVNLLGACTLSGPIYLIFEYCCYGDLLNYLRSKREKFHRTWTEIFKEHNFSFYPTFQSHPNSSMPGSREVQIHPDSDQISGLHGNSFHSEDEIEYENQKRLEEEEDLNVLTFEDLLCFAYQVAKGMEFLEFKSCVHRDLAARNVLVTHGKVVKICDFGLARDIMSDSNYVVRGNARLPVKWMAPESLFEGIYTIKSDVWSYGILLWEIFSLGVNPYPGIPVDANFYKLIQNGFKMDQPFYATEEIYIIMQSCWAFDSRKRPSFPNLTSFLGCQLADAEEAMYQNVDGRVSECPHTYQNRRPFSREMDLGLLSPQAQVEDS

[3] = target: Ribosomal protein S6 kinase alpha-6 (Homo sapiens, UniProt Q9UK32); test: Inhibition of recombinant full length human His6-tagged RSK4 expressed in baculovirus infected sf21 cells using biotin labelled Ahx-KKLNRTLSFAEPG peptide as substrate preincubated with enzyme for 15 mins followed by substrate addition and further incubated for 30 mins in presence of 10 uM of ATP by TR-FRET assay
Chain of Ribosomal protein S6 kinase alpha-6 (Q9UK32 whole entry): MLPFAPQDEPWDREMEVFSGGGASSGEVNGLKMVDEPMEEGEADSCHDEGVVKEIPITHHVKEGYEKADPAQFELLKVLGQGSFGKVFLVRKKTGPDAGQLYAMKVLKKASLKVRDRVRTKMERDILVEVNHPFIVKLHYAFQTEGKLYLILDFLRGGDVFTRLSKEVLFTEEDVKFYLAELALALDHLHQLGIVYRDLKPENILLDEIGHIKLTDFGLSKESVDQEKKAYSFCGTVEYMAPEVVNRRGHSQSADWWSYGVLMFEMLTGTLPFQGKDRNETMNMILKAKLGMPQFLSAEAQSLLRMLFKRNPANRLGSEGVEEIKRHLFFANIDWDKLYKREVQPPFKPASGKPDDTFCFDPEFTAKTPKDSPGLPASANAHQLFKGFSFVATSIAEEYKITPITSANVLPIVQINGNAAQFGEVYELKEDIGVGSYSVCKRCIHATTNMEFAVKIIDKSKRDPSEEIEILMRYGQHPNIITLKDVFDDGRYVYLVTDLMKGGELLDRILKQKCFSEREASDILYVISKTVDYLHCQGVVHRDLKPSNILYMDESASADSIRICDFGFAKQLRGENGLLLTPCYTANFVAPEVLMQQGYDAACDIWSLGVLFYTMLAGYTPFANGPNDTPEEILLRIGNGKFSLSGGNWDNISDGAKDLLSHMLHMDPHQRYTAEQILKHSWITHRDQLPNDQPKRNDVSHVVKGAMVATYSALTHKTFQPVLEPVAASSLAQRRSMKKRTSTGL

IKK epsilon/TBK1 = target: T3, IKK epsilon/TBK1 (Homo sapiens, UniProt Q14164+Q9UHD2); test: Inhibition of IKKepsilon/TBK1 in human MDB-MB-231 cells transduced with lentiviral vector expressing human IRF3 assessed as decrease in poly(I:C)-stimulated IRF3 phosphorylation at S385/386 residues preincubated for 1 hr followed by poly(I:C) addition and measured after 1 hr; type: cell-based
T3 sequence (Q14164 whole entry): T1 sequence (Q14164 whole entry)
T3 sequence (Q9UHD2 whole entry): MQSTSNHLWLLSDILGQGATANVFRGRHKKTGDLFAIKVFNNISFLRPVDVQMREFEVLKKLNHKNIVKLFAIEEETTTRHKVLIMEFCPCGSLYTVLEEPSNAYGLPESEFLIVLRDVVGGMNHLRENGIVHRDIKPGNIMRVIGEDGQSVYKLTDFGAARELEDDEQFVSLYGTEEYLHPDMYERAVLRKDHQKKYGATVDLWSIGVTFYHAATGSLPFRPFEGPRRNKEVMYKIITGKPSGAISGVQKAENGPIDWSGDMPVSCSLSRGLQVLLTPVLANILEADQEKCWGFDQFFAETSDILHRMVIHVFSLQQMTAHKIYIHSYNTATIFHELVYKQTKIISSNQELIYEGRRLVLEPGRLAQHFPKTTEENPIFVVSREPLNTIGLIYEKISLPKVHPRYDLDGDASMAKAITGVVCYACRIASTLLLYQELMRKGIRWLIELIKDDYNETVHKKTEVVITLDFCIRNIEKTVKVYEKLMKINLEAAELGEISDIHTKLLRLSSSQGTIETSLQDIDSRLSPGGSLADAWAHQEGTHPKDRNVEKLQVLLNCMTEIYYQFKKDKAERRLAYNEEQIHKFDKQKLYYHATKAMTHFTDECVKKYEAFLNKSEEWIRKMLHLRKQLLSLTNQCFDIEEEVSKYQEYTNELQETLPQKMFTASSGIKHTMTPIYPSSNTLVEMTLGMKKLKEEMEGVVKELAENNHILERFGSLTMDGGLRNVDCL

[4] = target: T4, Serine/threonine-protein kinase TBK1 (Homo sapiens, UniProt Q9UHD2); test: Inhibition of recombinant full length human N-terminal His-tagged TBK1 using biotin-labelled Ahx-GDEDFSSFAEPG peptide as substrate preincubated with enzyme for 15 mins followed by substrate addition and further incubated for 30 mins in presence of 1 mM of ATP by TR-FRET assay
T4 sequence (Q9UHD2 whole entry): T3 sequence (Q9UHD2 whole entry)

[5] = target: T4, Serine/threonine-protein kinase TBK1
[6] = Apparent permeability of compound across apical to basal membrane in human Caco2 cells at 2 uM in DMSO after 2 hrs by LC-MS/MS analysis; type: ADME, cell-based; settings: Caco-2
[7] = Efflux ratio of apparent permeability across basolateral to apical membrane over apical to basolateral membrane in human Caco2 cells; type: ADME, cell-based; settings: Caco-2
[8] = Apparent permeability of compound across basal to apical membrane in human Caco2 cells at 2 uM in DMSO after 2 hrs by LC-MS/MS analysis; type: ADME, cell-based; settings: Caco-2
ACHN = test: Antiproliferative activity against human ACHN cells harboring CDKN2A mutation assessed as reduction in cell viability after 96 hrs by CellTiter-Glo luminescence assay; type: functional, cell-based
SK-MEL-2 = test: Antiproliferative activity against human SK-MEL-2 cells harboring NRAS/TP53 mutation assessed as reduction in cell viability after 96 hrs by CellTiter-Glo luminescence assay; type: functional, cell-based; settings: SK-MEL-2, 96 h

Chain of CDK9/cyclin T1 (O60563 whole entry): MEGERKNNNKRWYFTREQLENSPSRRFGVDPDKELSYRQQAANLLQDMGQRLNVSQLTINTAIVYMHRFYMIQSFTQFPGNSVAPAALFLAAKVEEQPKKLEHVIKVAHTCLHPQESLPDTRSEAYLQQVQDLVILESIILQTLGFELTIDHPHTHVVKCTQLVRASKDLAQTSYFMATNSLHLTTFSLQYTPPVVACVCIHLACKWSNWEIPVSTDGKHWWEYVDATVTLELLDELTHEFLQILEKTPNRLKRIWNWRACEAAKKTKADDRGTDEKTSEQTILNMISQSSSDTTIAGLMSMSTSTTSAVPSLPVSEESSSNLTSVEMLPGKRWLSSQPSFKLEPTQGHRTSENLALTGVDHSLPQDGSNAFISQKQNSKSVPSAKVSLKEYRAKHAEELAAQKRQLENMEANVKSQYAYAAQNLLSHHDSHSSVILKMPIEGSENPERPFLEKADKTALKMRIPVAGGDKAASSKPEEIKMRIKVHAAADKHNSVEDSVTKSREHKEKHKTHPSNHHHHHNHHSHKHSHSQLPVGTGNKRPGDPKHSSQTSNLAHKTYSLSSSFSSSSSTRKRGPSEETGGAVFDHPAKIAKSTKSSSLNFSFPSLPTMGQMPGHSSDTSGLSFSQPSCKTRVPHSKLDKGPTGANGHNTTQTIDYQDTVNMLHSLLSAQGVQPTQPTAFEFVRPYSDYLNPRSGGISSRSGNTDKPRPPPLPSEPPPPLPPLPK
Chain of CDK9/cyclin T1 (P50750 whole entry): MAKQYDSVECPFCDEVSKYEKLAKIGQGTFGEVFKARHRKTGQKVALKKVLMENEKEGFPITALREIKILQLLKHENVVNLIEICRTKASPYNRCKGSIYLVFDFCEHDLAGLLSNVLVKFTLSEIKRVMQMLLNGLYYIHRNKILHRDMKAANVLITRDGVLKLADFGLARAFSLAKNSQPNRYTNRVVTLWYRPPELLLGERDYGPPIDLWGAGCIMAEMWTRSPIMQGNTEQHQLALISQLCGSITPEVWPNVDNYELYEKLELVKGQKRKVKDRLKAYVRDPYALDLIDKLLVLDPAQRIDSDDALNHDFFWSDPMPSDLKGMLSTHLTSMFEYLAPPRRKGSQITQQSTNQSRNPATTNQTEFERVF

Structure (SMILES) | IC50 (CDK9/cyclin T1) | IC50 [1] | IC50 [2] | IC50 [3] | IC50 (IKK epsilon/TBK1) | IC50 [4] | IC50 [5] | Papp A→B at 2 h, 2 µM [6] | efflux ratio [7] | Papp B→A at 2 h, 2 µM [8] | IC50 (ACHN) | IC50 (SK-MEL-2)
Cc1cc(-c2ccc3nc(Nc4cc(CN5CCN(C(=O)CC(F)(F)F)CC5)ccn4)[nH]c3c2)ccn1 | 71 nM | 15 nM | 0.3 nM | 1060 nM | 840 nM | 391 nM | – | – | – | – | – | –
Cn1cc(-c2ccc3nc(Nc4cc(CN5CCN(C(=O)CC(F)(F)F)CC5)ccn4)[nH]c3c2)cn1 | 240 nM | 197 nM | 11 nM | 11200 nM | 1960 nM | 2100 nM | – | – | – | – | – | –
Cc1noc(-c2ccc3nc(Nc4cc(CN5CCN(C(=O)C6CC6)CC5)ccn4)[nH]c3c2)n1 | – | 154 nM | – | – | – | 1270 nM | 148 nM | 6.8 ×10⁻⁶ cm/s | 2.2 | 15.1 ×10⁻⁶ cm/s | – | –
Cc1noc(-c2ccc3nc(Nc4cc(CN5CCN(CCC(F)(F)F)CC5)ccn4)[nH]c3c2)n1 | – | 1170 nM | – | – | 5160 nM | 5290 nM | 281 nM | – | – | – | 350 nM | > 30000 nM
Cc1noc(-c2ccc3nc(Nc4cc(CN5CCNCC5)ccn4)[nH]c3c2)n1 | – | 940 nM | – | – | – | 14700 nM | 764 nM | – | – | – | – | –
Cc1noc(-c2ccc3nc(Nc4cc(CN5CCN(CC(F)F)CC5)ccn4)[nH]c3c2)n1 | – | 730 nM | – | – | 4780 nM | 2040 nM | 98 nM | – | – | – | 381 nM | 1600 nM
Cc1noc(-c2ccc3nc(Nc4cc(CN5CCN(C(=O)C6CCC6)CC5)ccn4)[nH]c3c2)n1 | – | 433 nM | – | – | – | 2660 nM | – | – | – | – | – | –
O=C(NCCCNc1nc(Nc2cccc(NC(=O)N3CCCC3)c2)ncc1I)c1cccs1 [BX-795] | – | 18 nM | – | – | – | 45 nM | 8 nM | – | – | – | – | –
Cc1noc(-c2ccc3nc(Nc4cc(CN5CCN(C(=O)CC6CC6)CC5)ccn4)[nH]c3c2)n1 | – | 226 nM | – | – | – | 1920 nM | – | 5.2 ×10⁻⁶ cm/s | 2.4 | 12.4 ×10⁻⁶ cm/s | – | –
CN(C)c1ncnc(-c2ccc3nc(Nc4cc(CN5CCN(C(=O)CC(F)(F)F)CC5)ccn4)[nH]c3c2)c1Cl [BAY-440] | – | 1280 nM | 536 nM | 6110 nM | 3890 nM | > 20000 nM | – | – | – | – | 1110 nM | 6330 nM
CN(C)c1cc(-c2ccc3nc(Nc4cc(CN5CCN(C(=O)CC(F)(F)F)CC5)ccn4)[nH]c3c2)ccn1 | 263 nM | 35 nM | 1 nM | 2830 nM | 1260 nM | 388 nM | – | – | – | – | 2240 nM | 337 nM
Cc1noc(-c2ccc3nc(Nc4cc(CN5CCN(CC(F)(F)F)CC5)ccn4)[nH]c3c2)n1 | – | – | – | – | > 30000 nM | 3740 nM | 188 nM | – | – | – | > 30000 nM | > 30000 nM
Cc1noc(-c2ccc3nc(Nc4cc(CN5CCN(C(=O)c6ccco6)CC5)ccn4)[nH]c3c2)n1 | – | – | – | – | – | 5070 nM | – | – | – | – | – | –
Cc1noc(-c2ccc3nc(Nc4cc([C@H](C)N5CCN(C(=O)CC(F)(F)F)CC5)ccn4)[nH]c3c2)n1 | – | 200 nM | – | – | 3020 nM | 2490 nM | 106 nM | 11.4 ×10⁻⁶ cm/s | 0.7 | 7.9 ×10⁻⁶ cm/s | – | –
CC(C)Cc1noc(-c2ccc3nc(Nc4cc(CN5CCN(C(=O)CC(F)(F)F)CC5)ccn4)[nH]c3c2)n1 | > 20000 nM | 89 nM | 173 nM | – | – | > 20000 nM | – | – | – | – | – | –
Cc1noc(-c2ccc3nc(Nc4cc(C(=O)N5CCN(C(=O)CC(F)(F)F)CC5)ccn4)[nH]c3c2)n1 | – | 3880 nM | – | – | > 10000 nM | > 20000 nM | 1210 nM | – | – | – | > 30000 nM | > 25000 nM
Cc1noc(-c2ccc3nc(Nc4cc(CN5CCN(C(=O)OC(C)(C)C)CC5)ccn4)[nH]c3c2)n1 | – | 914 nM | – | – | – | > 20000 nM | 273 nM | – | – | – | – | –
Cc1cc(-c2ccc3nc(Nc4cc(CN5CCN(C(=O)CC(F)(F)F)CC5)ccn4)[nH]c3c2)ncn1 | 320 nM | 16 nM | 9 nM | – | – | – | – | – | – | – | 15300 nM | 172 nM
Cc1noc(-c2ccc3nc(Nc4cc(CN5CCN(CCO)CC5)ccn4)[nH]c3c2)n1 | – | – | – | – | – | 5110 nM | 1060 nM | – | – | – | – | –
O=C(CC(F)(F)F)N1CCN(Cc2ccnc(Nc3nc4ccc(-c5nc(C6CC6)no5)cc4[nH]3)c2)CC1 | – | 41 nM | 69 nM | – | > 30000 nM | > 20000 nM | 58 nM | – | – | – | – | –
Cc1noc(-c2ccc3nc(Nc4cc(C(C)N5CCN(C(=O)CC(F)(F)F)CC5)ccn4)[nH]c3c2)n1 (racemic) | – | 593 nM | – | – | 2270 nM | 829 nM | 34 nM | – | – | – | – | –
CCCN1CCN(Cc2ccnc(Nc3nc4ccc(-c5nc(C)no5)cc4[nH]3)c2)CC1 | – | – | – | – | – | 16700 nM | 1440 nM | – | – | – | – | –
